The values that follow come from patent publication US7268232B2 (Acadia Pharmaceuticals Inc., priority 2004, dated 2007).

pEC50: −log10 of the molar value. Counter-ions that a name gives are not always drawn.

The target in one data set is T1, Androgen AR receptor (Homo sapiens, UniProt P10275).
T1 construct: expressed in transfected cells; host or cells: NIH3T3 cells
T1 sequence (P10275 1-920): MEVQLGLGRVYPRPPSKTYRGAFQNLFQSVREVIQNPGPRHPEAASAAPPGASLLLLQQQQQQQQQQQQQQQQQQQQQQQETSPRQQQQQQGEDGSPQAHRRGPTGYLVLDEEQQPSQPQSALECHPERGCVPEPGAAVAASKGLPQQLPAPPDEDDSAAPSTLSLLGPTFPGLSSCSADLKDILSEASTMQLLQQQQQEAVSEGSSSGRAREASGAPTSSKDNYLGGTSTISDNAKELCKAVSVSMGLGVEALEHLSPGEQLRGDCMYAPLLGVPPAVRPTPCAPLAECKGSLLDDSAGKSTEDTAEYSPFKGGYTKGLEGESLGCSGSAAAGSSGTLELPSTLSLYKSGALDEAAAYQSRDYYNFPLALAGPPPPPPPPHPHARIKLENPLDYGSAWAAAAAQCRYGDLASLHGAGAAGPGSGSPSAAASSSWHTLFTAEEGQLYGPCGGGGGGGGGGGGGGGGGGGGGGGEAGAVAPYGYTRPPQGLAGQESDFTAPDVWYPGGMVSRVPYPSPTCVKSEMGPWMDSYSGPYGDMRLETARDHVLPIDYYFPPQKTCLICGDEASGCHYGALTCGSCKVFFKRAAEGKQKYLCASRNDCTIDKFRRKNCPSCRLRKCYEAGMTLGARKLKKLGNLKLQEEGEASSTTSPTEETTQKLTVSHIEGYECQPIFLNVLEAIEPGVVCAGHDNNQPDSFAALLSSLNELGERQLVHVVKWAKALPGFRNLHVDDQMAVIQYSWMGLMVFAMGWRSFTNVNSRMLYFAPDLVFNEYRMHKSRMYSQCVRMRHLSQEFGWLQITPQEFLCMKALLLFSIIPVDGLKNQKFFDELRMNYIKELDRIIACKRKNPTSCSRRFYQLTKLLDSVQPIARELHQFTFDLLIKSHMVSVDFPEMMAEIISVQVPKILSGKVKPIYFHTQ
Kind of data set: Receptor Selection and Amplification (R-SAT) assay, androgen receptor agonist activity. The format is cell-based. Particulars: for Emax: NIH3T3, read-out: % Efficacy. The protocol: Receptor Selection and Amplification (R-SAT) Assays. The functional receptor assay, Receptor Selection and Amplification Technology (R-SAT™), was used with minor modifications from the procedure described previously (Brann, M. R. U.S. Pat. No. 5,707,798, 1998) to screen compounds for efficacy at the Androgen AR receptor. Briefly, NIH3T3 cells were grown in roller bottles to 70-80% confluence. Cells were then transfected for 12-16 h with plasmid DNAs using Polyfect (Qiagen Inc.) as per the manufacturer's protocol. R-SAT assays were typically performed by transfecting 30 ug/bottle of receptor and 50 ug/bottle of β-galactosidase plasmid DNA. All receptor and helper constructs used were in mammalian expression vectors. Helpers are defined as signaling molecules that modulate both ligand-dependent and/or ligand-independent function of the AR receptor, typically co-activators. NIH3T3 cells were transfected for 12-16 h, then trypsinized and frozen in DMSO. Frozen cells were later thawed, plated at 10,000-40,000 cells per well of a 96 well plate containing drug. Cells were then grown in a humidified atmosphere with 5% ambient CO2 for five days. Media was then removed from the plates and marker gene activity was measured by the addition of the β-galactosidase substrate o-nitrophenyl β-D-galactopyranoside (ONPG, in PBS with 5% NP-40). The resulting colorimetric reaction was measured in a spectrophotometric plate reader (Titertek Inc.) at […]. All data were analyzed using the computer program XLFit (IDBSm).

The test system of data set [1] is castrated male Sprague Dawley rats. Kind of data set: Rat luteinizing hormone (LH) plasma levels by ELISA after daily s.c. administration for 14 days. It counts as in vivo. Particulars: for dose at which complete reversal of plasma LH levels is evident: s.c. daily for 14 days. As for the experimental part: (§1) Androgen Receptor agonist 116BG33 was administered s.c. daily for two weeks to castrated male Sprague Dawley rats (n=3). The effects of 116BG33 (3, 10, 30 mg/kg) were compared to testosterone propionate (0.1 and 1 mg/kg; positive control) and vehicle (10% Tween80; negative control). Blood and wet weights of prostate gland and seminal vesicle were measured after sacrifice that occurred 24 hours after the last dose. Blood was collected in heparin collection tubes after sacrifice that occurred 24 hours after the last dose. Blood was centrifuged and plasma collected and plasma samples frozen.
Rat luteinizing hormone (LH) plasma levels were determined using an enzyme linked immunoabsorbent assay (ELISA) from Amersham as per manufacturer's instructions. The solid phase assay is based on the competition between unlabeled rLH and a fixed quantity of biotin labelled rLH for a limited amount of rLH specific antibody. A conjugate streptavidin/peroxidase allows for signal amplification and detection in presence of the substrate.
(In an ELISA, binding on a coated surface is turned into a signal by an enzyme label.)

For data set [2] the test system is unchanged. Kind of data set: Wet tissue weights (prostate, seminal vesicle, levator ani muscle) after daily s.c. administration for two weeks. It counts as in vivo, rat. Particulars: for wet weight of prostate / wet weight of seminal vesicle: castrated rats. As for the experimental part:
as §1

Setting [3] is: 3, 10 or 30 mg/kg s.c. daily for two weeks, compared to vehicle.
The mark [4] stands for this setting: 0.1 mg/kg s.c. daily for two weeks, compared to vehicle.
The mark [5] stands for this setting: 1 mg/kg s.c. daily for two weeks, compared to vehicle.

As to `CC1CCC(C)N1c1ccc([N+](=O)[O-])c2ccccc12` (stereo not drawn), at Androgen AR receptor, the negative-log EC50 (pEC50) is 8.10 and the Emax stood at 94%.
On to `N#Cc1ccc(N2[C@@H]3CC[C@H]2CC(NCCc2c[nH]cn2)C3)c2ccccc12` (mixture of isomers) [156AF11-229, 4-{3-[2-(1H-Imidazol-4-yl)ethylamino]-8-azabicyclo[3.2.1]oct-8-yl}naphthalene-1-carbonitrile, dihydrochloride], for which, on Androgen AR receptor, the pEC50 was 6.80 and the Emax is 44%.
As for `O=[N+]([O-])c1ccc(N2CCCC2)c2ccccc12` [116BG33, 1-(4-Nitronaphthalen-1-yl)pyrrolidine], in data set [1], the “dose at which complete reversal of plasma LH levels is evident” value came out at 30 mg/kg. Besides, the “plasma LH levels” value in data set [1] (sub-cutaneous, 3, 10, 30 mg/kg, 14 days) was “reduces LH levels to physiological norms”. Moreover, in data set [2] (setting [3]), the “wet weight of prostate” value is “did not have any effect” and the “wet weight of seminal vesicle” value is “did not have any effect”.
As for `N#Cc1ccc(N2CCCCC2)c2ccccc12` [136BG73-10, 4-Piperidin-1-ylnaphthalene-1-carbonitrile], on Androgen AR receptor, the pEC50 is 8.10 and the Emax is 66%.
For `N#Cc1ccc(N2CCC(O)C2)c2ccccc12` (stereo not drawn) [136BG85-2, 4-(3-Hydroxypyrrolidin-1-yl)naphthalene-1-carbonitrile], at Androgen AR receptor, the negative logarithm of the EC50 (pEC50) was 7.10 and the Emax was found to be 41%.
As to `N#Cc1ccc(N2[C@@H]3CC[C@H]2CC(O)C3)c2ccccc12` (stereo partly drawn) [154BG31, 4-(3-endo-Hydroxy-8-azabicyclo[3.2.1]oct-8-yl)naphthalene-1-carbonitrile], in data set [1], the “dose at which complete reversal of plasma LH levels is evident” value was 10 mg/kg. Besides, the “plasma LH levels” value in data set [1] (various doses, s.c. for 14 days) was “dose-dependent suppression”. Besides, the “wet tissue weights (prostate, seminal vesicle, levator ani muscle)” value in data set [2] (3 mg/kg s.c. daily for two weeks) is reported as “did not appear to significantly alter”; in data set [2] (higher doses (3 and 10 mg/kg) daily, not to the extent of TP), “appeared to significantly increase”. The “dose relative to TP at which negative side effects (increased seminal vesicle and prostate size) become evident” value in data set [2] (compared to TP) is reported as “at least 100 × of TP”.
On to `N#Cc1ccc(N2C3CCC2CC(OC(=O)CCN2CCOCC2)C3)c2ccccc12` (stereo not drawn) [156AF32-246, 3-Morpholin-4-ylpropionic acid endo-8-(4-cyanonaphthalen-1-yl)-8-azabicyclo[3.2.1]oct-3-yl ester, hydrochloride], for which, on Androgen AR receptor, the pEC50 was 7.40 and the Emax amounted to 57%.
For the compound `CC1(O)CC2CCC(C1)N2c1ccc(C#N)c2ccccc12` (stereo not drawn) [156AF70-267, 4-(3-Endo-hydroxy-3-exo-methyl-8-azabicyclo[3.2.1]oct-8-yl)naphthalene-1-carbonitrile], on Androgen AR receptor, the pEC50 is 8.70 and the Emax was 88%.
On to `CC1C=CC(C)N1c1ccc(C#N)c2ccccc12` (stereo not drawn) [196MBT2-7, 4-(2,5-Dimethyl-2,5-dihydropyrrol-1-yl)naphthalene-1-carbonitrile], for which, on Androgen AR receptor, the pEC50 was 8.10 and the Emax came to 85%.
As to `CCC(=O)O[C@H]1CC[C@H]2[C@@H]3CCC4=CC(=O)CC[C@]4(C)[C@H]3CC[C@]12C` [testosterone propionate], the “plasma LH levels” value in data set [1] (1 mg/kg, s.c. for 14 days, versus naive rats) is listed as “restored LH levels to those obtained in naive rats”; in data set [1] (chronic administration (14 days), 0.1 and 1 mg/kg, versus naive animals), “dose dependent reversal”. The “wet weight of prostate” value is “did not have any effect” in data set [2] (setting [4]) and “significant increases” in data set [2] (setting [5]). The figures for the “wet weight of seminal vesicle” value in data set [2] (setting [4]) and in data set [2] (setting [5]) were “did not have any effect” and “significant increases”, respectively. Besides, in data set [2] (setting [5]), the “wet weight of levator ani muscle” value is reported as “significant increases”.

One may read the pEC50 as the negative decadic logarithm of the EC50, by convention in mol/L. The low end stands for a large EC50, the high end for a small EC50.
